Literature values, collected in US5177064A, “Targeted drug delivery via phosphonate derivatives” (University of Florida, priority 1990, dated 1993).
pIC50: −log10 of the molar value. In brackets after ≈: the same amount, converted by molar mass. One block for each compound: values may come before it.

Columns and labels:
[1] = human, in vivo
encephalitis [2] = conditions: treatment of encephalitis in vitro and in vivo
HCMV = conditions: in vitro; read-out: IC50 against HCMV
[3] = at 37° C.
[4] = humans
encephalitis [5] = test system: encephalitis
[6] = intravenous, biphasic elimination

bioavailability [1]: about 60%
Compound: Cc1cn([C@H]2C[C@H](N=[N+]=[N-])[C@@H](CO)O2)c(=O)[nH]c1=O [AZT, azidothymidine]

log P (octanol/water) (octanol/water): negative
Compound: Nc1ncnc2c1ncn2[C@@H]1O[C@H](CO)[C@@H](O)[C@@H]1O [Ara-A, 9-β-D-arabinofuranosyladenine]

log P: 2.06
Compound: NC(=O)c1ncn([C@@H]2O[C@H](CO)[C@@H](O)[C@H]2O)n1 [ribavirin, 1-β-D-ribofuranosyl-1,2,4-triazole-3-carboxamide]

Second part, the compound before the results:

Compound: Nc1nc(O)c2ncn(COC(CO)CO)c2n1 [DHPG, Dihydroxypropoxymethylgaunine]
effectiveness relative to acyclovir (encephalitis [2]): at least 100 fold | pIC50 (HCMV): ~5.60 | aqueous solubility [3]: 5100 µg/mL (≈ 20 mM) | drug excreted unchanged by the kidneys [4]: 99% | oral bioavailability ([4]; based on urinary excretion): 3-4.6% | α-phase half-life [4, 6]: 0.23 h | β-phase half-life [4, 6]: 2.53 h

Compound: Cc1cn([C@@H]2O[C@H](CO)[C@@H](O)[C@@H]2F)c(=O)[nH]c1=O [FMAU]
doses producing irreversible neurological damage (encephalitis [5]; in vivo): greater than 32 mg | therapeutic index (encephalitis [5]; treating encephalitis): greater than 3,000
